GI50 and TGI data for 13 compounds are collected here from PubChem BioAssay (NCI).

Some test systems named below: TK-10 renal; CAKI-1 renal; MDA-MB-231 breast; UACC-62 melanoma; SNB-19 CNS; SF-268 CNS; U251 CNS; NCI-H23 lung; CCRF-CEM leukemia; UO-31 renal.
Common to all, as to assay: NCI anticancer screen, dose series, 48 h

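In this assay, cells in 96-well plates receive the compound at five concentrations for 48 hours. Endpoints are linearly interpolated between the surrounding concentrations. GI50 marks 50% less growth. TGI marks complete inhibition of growth.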

In the case of `CC(C)C[CH2][Ge]([CH2]CC(C)C)([CH2]CC(C)C)[CH2]CC(C)C`, the GI50 with TK-10 renal, in the test on CAKI-1 renal, in the test with MDA-MB-231 breast, in the test on UACC-62 melanoma, in the test with SNB-19 CNS and with SF-268 CNS was greater than 100 µM each time. For the same compound, the GI50 with U251 CNS, in the test with NCI-H23 lung, in the test with CCRF-CEM leukemia and with UO-31 renal was greater than 100 µM throughout. For the same compound, the TGI in the test on TK-10 renal, with CAKI-1 renal, in the test on MDA-MB-231 breast, in the test on UACC-62 melanoma, in the test on SNB-19 CNS and in the test with SF-268 CNS was greater than 100 µM each time. The TGI in the test with U251 CNS, in the test with NCI-H23 lung, in the test on CCRF-CEM leukemia and with UO-31 renal was greater than 100 µM in each case.
On to `O=C(Nc1ccc(Nc2ccncc2)cc1)c1ccc(Nc2ccnc3ccc([N+](=O)[O-])cc23)cc1[N+](=O)[O-]`, for which the GI50 in the test on TK-10 renal is 27.9 µM; in the test with CAKI-1 renal, greater than 39.6 µM; in the test with MDA-MB-231 breast, 24.6 µM; in the test with UACC-62 melanoma, 11.1 µM; in the test on SNB-19 CNS, 5.61 µM; with U251 CNS, 2.76 µM. The GI50 in the test on NCI-H23 lung was 20.6 µM; with CCRF-CEM leukemia it was 18.6 µM; with UO-31 renal, 7.33 µM. In addition, the TGI in the test on TK-10 renal was greater than 80.2 µM; in the test on CAKI-1 renal, greater than 83.2 µM; in the test on MDA-MB-231 breast, greater than 61.8 µM; in the test on UACC-62 melanoma it was 58.8 µM; in the test on SNB-19 CNS, greater than 100 µM; in the test on U251 CNS it was greater than 24.8 µM. In addition, the TGI is greater than 100 µM in the test with NCI-H23 lung, greater than 50.6 µM in the test with CCRF-CEM leukemia and greater than 64.1 µM in the test with UO-31 renal.
With `O=C(NO)c1ccc(Cn2c(=O)n(-c3ccccc3)c(=O)c3ccccc32)cc1`, the GI50 is 1.02 µM in the test on TK-10 renal; 2.81 µM in the test on CAKI-1 renal; 1.63 µM in the test with MDA-MB-231 breast; 0.482 µM in the test with UACC-62 melanoma; 1.85 µM in the test on SNB-19 CNS; 1.38 µM in the test on SF-268 CNS. Also, the GI50 was 0.86 µM in the test with U251 CNS, 0.457 µM in the test on CCRF-CEM leukemia and 1.77 µM in the test with UO-31 renal. In addition, the TGI in the test with TK-10 renal is 8.08 µM; with CAKI-1 renal it was 12.3 µM; in the test on MDA-MB-231 breast, 5.16 µM; in the test with UACC-62 melanoma, 2.16 µM; in the test on SNB-19 CNS it was greater than 100 µM; in the test on SF-268 CNS it was 4.52 µM. Also, the values for the TGI in the test with U251 CNS, with CCRF-CEM leukemia and in the test on UO-31 renal were 2.3 µM, greater than 100 µM and 4.63 µM, respectively.
As to `COc1ccc(/C=C\c2cc(OC)c(OC)c(OC)c2)cc1OCC(=O)Nc1nc2ccccc2s1`, the GI50 in the test on CAKI-1 renal is 0.309 µM; in the test on MDA-MB-231 breast, 0.179 µM; in the test with UACC-62 melanoma, 0.0587 µM; in the test with SF-268 CNS it was 0.23 µM; with U251 CNS, 0.0416 µM; in the test with NCI-H23 lung it was 0.0966 µM. Besides, the values for the GI50 in the test on CCRF-CEM leukemia and in the test with UO-31 renal were 0.134 µM and 0.381 µM, respectively. Moreover, the TGI was greater than 35.8 µM in the test with CAKI-1 renal; greater than 100 µM with MDA-MB-231 breast; greater than 100 µM in the test on UACC-62 melanoma; greater than 100 µM in the test with SF-268 CNS; greater than 32.9 µM with U251 CNS; greater than 100 µM in the test on NCI-H23 lung. Besides, the TGI with CCRF-CEM leukemia and with UO-31 renal was greater than 100 µM throughout.
On to `O=c1c2c(=NCCN3CCCC3)cc3c(=O)n(CCCN4CCOCC4)c(=O)c4ccc(c(O)n1CCCN1CCOCC1)c2c4-3`, for which the GI50 was 0.195 µM with TK-10 renal; 0.218 µM with CAKI-1 renal; 0.197 µM with MDA-MB-231 breast; 0.35 µM in the test with UACC-62 melanoma; 0.168 µM with SNB-19 CNS; 0.165 µM in the test with SF-268 CNS. The GI50 was 0.11 µM in the test on U251 CNS, 0.118 µM in the test on NCI-H23 lung and 0.0532 µM in the test on CCRF-CEM leukemia. Moreover, the TGI is 1.62 µM in the test on TK-10 renal; 1.41 µM in the test on CAKI-1 renal; 0.919 µM with MDA-MB-231 breast; 0.966 µM in the test on UACC-62 melanoma; 2.09 µM in the test on SNB-19 CNS; 0.751 µM with SF-268 CNS. Moreover, the TGI with U251 CNS is 1.95 µM; in the test on NCI-H23 lung, 0.627 µM; in the test with CCRF-CEM leukemia, 1.59 µM.
Consider `Fc1ccc([C@@H]2CCNC[C@H]2COc2ccc3c(c2)OCO3)cc1`, for which the GI50 in the test with TK-10 renal is 11.3 µM; in the test with CAKI-1 renal, 12.1 µM; in the test on MDA-MB-231 breast, 3.07 µM; in the test with UACC-62 melanoma it was 5.52 µM; with SNB-19 CNS, 12 µM; with SF-268 CNS it was 10.8 µM. The values for the GI50 with U251 CNS, with NCI-H23 lung and with UO-31 renal were 8.18 µM, 15.4 µM and 5.76 µM, respectively. Also, the TGI is 23.8 µM in the test on TK-10 renal; 25.3 µM with CAKI-1 renal; 15 µM with MDA-MB-231 breast; 18.8 µM with UACC-62 melanoma; 25.4 µM with SNB-19 CNS; 23.5 µM in the test on SF-268 CNS. For the same compound, the values for the TGI in the test on U251 CNS, with NCI-H23 lung and with UO-31 renal were 21.1 µM, 32.5 µM and 19.6 µM, respectively.
`COc1ccc(-c2nc(-c3ccccn3)c(-c3ccccn3)n2CC(C)C)cc1OC1CCCC1`: the GI50 in the test with CAKI-1 renal was 7.44 µM; in the test with MDA-MB-231 breast, 18.2 µM; in the test on SNB-19 CNS, 30.2 µM; in the test with SF-268 CNS, 43.8 µM; in the test with U251 CNS it was 20.6 µM; in the test on NCI-H23 lung it was 28.5 µM. For the same compound, the GI50 in the test on CCRF-CEM leukemia is 7.54 µM; in the test on UO-31 renal, 7.43 µM. The TGI with CAKI-1 renal was 90.2 µM; in the test on MDA-MB-231 breast, 125 µM; in the test with SNB-19 CNS, greater than 165 µM; in the test on SF-268 CNS, greater than 165 µM; in the test on U251 CNS, 86.9 µM; in the test on NCI-H23 lung, greater than 165 µM. Further, the results for the TGI with CCRF-CEM leukemia and in the test on UO-31 renal were 59.8 µM and 142 µM, respectively.
Take `O=C1CC(c2ccsc2)c2snc(-c3ccc(Cl)cc3)c2N1` (stereo not drawn): the GI50 was 1.03 µM with CAKI-1 renal; 1.33 µM in the test with MDA-MB-231 breast; 0.859 µM with UACC-62 melanoma; 3.78 µM with SNB-19 CNS; 4.87 µM in the test with SF-268 CNS; 1.75 µM in the test with U251 CNS. Also, the GI50 in the test on NCI-H23 lung was 1.76 µM; with UO-31 renal, 3.86 µM. Also, the TGI in the test on CAKI-1 renal, with MDA-MB-231 breast, with UACC-62 melanoma, in the test on SNB-19 CNS, with SF-268 CNS and with U251 CNS was greater than 100 µM in each case. Further, the TGI in the test with NCI-H23 lung and with UO-31 renal was greater than 100 µM each time.
`COc1ccc2c(c1)C(=O)c1c-2c(N2CCN(C(=O)CNCCN(C)C)CC2)nc2ccccc12`: the GI50 with TK-10 renal was 4.15 µM; in the test with CAKI-1 renal, 3.86 µM; in the test with MDA-MB-231 breast, 1.79 µM; in the test with UACC-62 melanoma, 2.16 µM; in the test with SNB-19 CNS, 4.99 µM; with SF-268 CNS, 2.28 µM. Further, the figures for the GI50 in the test with U251 CNS, in the test with CCRF-CEM leukemia and in the test with UO-31 renal were 2.19 µM, 1.39 µM and 1.38 µM, respectively. In addition, the TGI in the test on TK-10 renal came to 17.8 µM; with CAKI-1 renal it was 17.6 µM; in the test with MDA-MB-231 breast, 3.61 µM; with UACC-62 melanoma it was 3.69 µM; in the test on SNB-19 CNS, 19.8 µM; in the test on SF-268 CNS, 6 µM. Moreover, the TGI came out at 4.68 µM in the test on U251 CNS, 4.5 µM in the test on CCRF-CEM leukemia and 2.78 µM with UO-31 renal.
For `O=C(Cc1csc2nc(-c3ccc(Br)cc3)cn12)N/N=C/c1ccc(Cl)cc1Cl`, the GI50 was 36.1 µM in the test on CAKI-1 renal; 26.2 µM in the test on MDA-MB-231 breast; 23.3 µM in the test with UACC-62 melanoma; 94.6 µM in the test on SNB-19 CNS; greater than 100 µM in the test on SF-268 CNS; 20.6 µM with U251 CNS. Also, the GI50 in the test on NCI-H23 lung is 25.6 µM; in the test on CCRF-CEM leukemia, 40 µM; with UO-31 renal, 72.4 µM. In addition, the TGI with CAKI-1 renal was greater than 100 µM; in the test with MDA-MB-231 breast, greater than 100 µM; with UACC-62 melanoma it was 67.7 µM; in the test with SNB-19 CNS, greater than 100 µM; with SF-268 CNS it was greater than 100 µM; in the test on U251 CNS, 44.3 µM. In addition, the TGI in the test with NCI-H23 lung is 56.4 µM; with CCRF-CEM leukemia, greater than 100 µM; in the test with UO-31 renal, greater than 100 µM.
On to `COc1cc2cnc(-c3ccccc3)cc2cc1OC`, for which the TGI in the test with TK-10 renal was 67.2 µM; in the test with CAKI-1 renal, 62.4 µM; with MDA-MB-231 breast, 48.2 µM; in the test on UACC-62 melanoma it was 23.4 µM; in the test with SNB-19 CNS, greater than 100 µM; in the test on SF-268 CNS, greater than 100 µM. Also, the results for the TGI with U251 CNS, in the test with NCI-H23 lung and in the test on UO-31 renal were 56.5 µM, 56.7 µM and greater than 100 µM, respectively.
As to `CN(C)c1ccc2cc3ccc(N(C)C)cc3nc2c1`, the TGI in the test on TK-10 renal turned out to be 9.21 µM; in the test on CAKI-1 renal it was 13.5 µM; in the test with MDA-MB-231 breast, 2.89 µM; in the test with UACC-62 melanoma, 28.2 µM; in the test with SNB-19 CNS, 3.95 µM; in the test on SF-268 CNS, 6.26 µM. Also, the TGI in the test on U251 CNS was found to be 5.79 µM; in the test with NCI-H23 lung it was 6.17 µM; in the test on UO-31 renal, 4.11 µM.
On to `O=C(O)c1cn(C2CC2)c2cc(N3CCNCC3)c(F)cc2c1=O`, for which the GI50 with TK-10 renal, in the test on CAKI-1 renal, in the test on MDA-MB-231 breast, with UACC-62 melanoma, in the test with NCI-H23 lung and in the test with CCRF-CEM leukemia was greater than 100 µM each time. Further, the GI50 in the test on UO-31 renal was greater than 100 µM. The TGI in the test on TK-10 renal, with CAKI-1 renal, in the test on MDA-MB-231 breast, with UACC-62 melanoma, with NCI-H23 lung and with CCRF-CEM leukemia was greater than 100 µM each time. Also, the TGI in the test with UO-31 renal is greater than 100 µM.
